From patent publication US5273982A, “Acetic acid derivatives” (Hoffmann-La Roche Inc., priority 1990, dated 1993) come the findings set out here.

Each structure is given as a SMILES string.

T1 sequence (P08514 32-887 limits assumed): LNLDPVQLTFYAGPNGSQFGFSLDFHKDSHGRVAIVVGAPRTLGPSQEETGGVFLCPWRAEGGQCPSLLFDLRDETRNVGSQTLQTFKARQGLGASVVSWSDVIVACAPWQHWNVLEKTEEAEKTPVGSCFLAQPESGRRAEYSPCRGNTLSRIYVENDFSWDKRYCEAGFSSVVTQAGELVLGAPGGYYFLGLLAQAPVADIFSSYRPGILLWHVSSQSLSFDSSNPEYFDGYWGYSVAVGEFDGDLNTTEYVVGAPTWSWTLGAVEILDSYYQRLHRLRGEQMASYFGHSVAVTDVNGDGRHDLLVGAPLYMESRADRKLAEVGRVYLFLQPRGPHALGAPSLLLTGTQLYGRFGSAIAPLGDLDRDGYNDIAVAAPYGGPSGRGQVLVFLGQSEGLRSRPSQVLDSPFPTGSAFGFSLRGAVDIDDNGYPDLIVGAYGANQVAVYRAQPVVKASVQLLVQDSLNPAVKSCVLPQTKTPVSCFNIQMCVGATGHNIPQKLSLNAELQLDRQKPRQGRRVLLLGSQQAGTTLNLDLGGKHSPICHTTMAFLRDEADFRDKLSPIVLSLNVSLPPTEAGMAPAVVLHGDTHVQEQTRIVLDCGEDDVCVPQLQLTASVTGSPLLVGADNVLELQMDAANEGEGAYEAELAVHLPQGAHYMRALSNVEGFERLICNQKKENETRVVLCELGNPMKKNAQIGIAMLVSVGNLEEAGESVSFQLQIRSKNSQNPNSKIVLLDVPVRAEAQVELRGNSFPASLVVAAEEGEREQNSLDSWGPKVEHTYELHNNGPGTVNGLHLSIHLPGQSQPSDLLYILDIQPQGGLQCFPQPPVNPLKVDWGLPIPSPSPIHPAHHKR
T1 sequence (P08514 891-1039 partner limits assumed): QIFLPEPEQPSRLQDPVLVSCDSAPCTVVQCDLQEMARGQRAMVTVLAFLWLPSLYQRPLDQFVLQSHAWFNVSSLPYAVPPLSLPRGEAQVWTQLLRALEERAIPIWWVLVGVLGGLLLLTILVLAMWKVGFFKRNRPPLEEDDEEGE
T1 sequence (P05106 27-788): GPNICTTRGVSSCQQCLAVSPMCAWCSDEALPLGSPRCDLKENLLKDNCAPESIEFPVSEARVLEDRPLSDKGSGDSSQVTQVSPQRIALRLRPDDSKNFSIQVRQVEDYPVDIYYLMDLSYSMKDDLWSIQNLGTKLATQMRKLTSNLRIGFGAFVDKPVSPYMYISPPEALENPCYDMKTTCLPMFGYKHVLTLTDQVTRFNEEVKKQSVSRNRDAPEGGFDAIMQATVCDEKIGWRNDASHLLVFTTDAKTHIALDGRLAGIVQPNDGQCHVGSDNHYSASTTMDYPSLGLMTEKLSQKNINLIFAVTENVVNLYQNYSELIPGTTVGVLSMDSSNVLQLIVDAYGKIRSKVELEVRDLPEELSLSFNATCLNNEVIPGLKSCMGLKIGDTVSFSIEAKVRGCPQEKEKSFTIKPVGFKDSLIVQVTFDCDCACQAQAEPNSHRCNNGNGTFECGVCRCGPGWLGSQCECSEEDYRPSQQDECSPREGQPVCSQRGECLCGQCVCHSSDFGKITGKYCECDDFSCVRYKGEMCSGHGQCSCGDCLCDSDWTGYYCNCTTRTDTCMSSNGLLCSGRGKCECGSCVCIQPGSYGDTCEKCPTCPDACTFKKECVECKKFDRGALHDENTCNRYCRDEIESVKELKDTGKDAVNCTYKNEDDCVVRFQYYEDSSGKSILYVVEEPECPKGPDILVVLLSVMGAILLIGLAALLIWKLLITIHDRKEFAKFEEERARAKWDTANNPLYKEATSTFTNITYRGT

The experiment has as its target T1, fibrinogen receptor, glycoprotein IIb/IIIa (Homo sapiens, UniProt P05106+P08514).
T1 construct: obtained from Triton X-100 extracts of human blood platelets; from tissue; host or cells: human blood platelets (Triton X-100 extract)
The experiment is described as follows: Inhibition of fibrinogen binding to immobilised fibrinogen receptor glycoprotein IIb/IIIa (ELISA). The conditions noted are these: glycoprotein IIb/IIIa from human blood platelets, bound to microtiter plates, read-out: IC50 (concentration required to inhibit the binding of fibrinogen to the immobilised receptor by 50%). An excerpt:
The inhibition of fibrinogen […] on the fibrinogen receptor, glycoprotein IIb/IIIa, can be detected as follows:
Glycoprotein IIb/IIIa is obtained from Triton X-100 extracts of human blood platelets and purified by lectin affinity chromatography (Analytical Biochemistry 151, 1985, 169-177) and chromatography on an Arg-Gly-Asp-Ser affinity column (Science 231, 1986, 1559-62). The receptor protein thus obtained is bound to microtiter plates. The specific binding of fibrinogen to the immobilized receptor is determined with the aid of an ELISA system ("enzyme-linked immunosorbent assay"). The IC50 values below correspond to the concentration of the test substance which is required in order to inhibit the binding of fibrinogen to the immobilised receptor by 50%: […]
In the case of `N=C(N)c1ccc(C(=O)N2CCCC(C(=O)NCCC(=O)O)C2)cc1` (racemic) [Example 7, rac-N-[[1-(p-amidinobenzoyl)-3-piperi-dinyl]carbonyl]-β-alanine], the IC50 is 27 nM.
In the case of `N=C(N)c1ccc(C(=O)NC(CC(=O)NCCC(=O)O)c2ccccc2)cc1` (racemic) [Example 10, N-[(DL)-N-(p-amidinobenzoyl)-3-phenyl-β-alanyl]-β-alanine] it was 22 nM; in that of `N=C(N)c1ccc(C(=O)NCCC(=O)N[C@@H](CC(=O)O)C(=O)N[C@@H](Cc2ccccc2)C(=O)O)cc1` [Example 1, N-[N-[N-(p-amidinobenzoyl)-β-alanyl]-L-α-aspartyl]-3-phenyl-L-alanine], 0.3 nM.
In the case of `N=C(N)N1CCC(C(=O)NCCC(=O)N[C@@H](CC(=O)O)C(=O)N[C@@H](Cc2ccccc2)C(=O)O)CC1` [Example 2, N-[N-[N-(1-amidino-4-piperidinylcarbonyl)-β-alanyl]-L-α-aspartyl]-3-phenyl-L-alanine] it was 130 nM.
To `N=C(N)c1ccc(CC(=O)NCCC(=O)N[C@@H](CC(=O)O)C(=O)N[C@@H](Cc2ccccc2)C(=O)O)cc1` [Example 3, N-[N-[N-(p-amidinophenylacetyl)-β-alanyl]-L-α-aspartyl]-3-phenyl-L-alanine] belongs 45 nM; to `N=C(N)c1ccc(NC(=O)CCCC(=O)N[C@@H](CC(=O)O)C(=O)N[C@@H](Cc2ccccc2)C(=O)O)cc1` [Example 4, N-[N-[4-(p-amidinophenylcarbamoyl)butyryl]-L-α-aspartyl]-3-phenyl-L-alanine], 35 nM.
`N=C(N)c1ccc(CCNC(=O)CC(=O)N[C@@H](CC(=O)O)C(=O)N[C@@H](Cc2ccccc2)C(=O)O)cc1` [Example 5, N-[N-[(p-amidinophenethylcarbamoyl)acetyl]-L-α-aspartyl]-3-phenyl-L-alanine]: the IC50 is 10 nM.
In the case of `CC(C)[C@H](NC(=O)[C@H](CC(=O)O)NC(=O)CCCNC(=O)c1ccc(C(=N)N)cc1)C(=O)O` [Example 6, N-[N-[4-(p-amidinobenzamido)butyryl]-L-α-aspartyl]-L-valine] it was 10 nM; in that of `N=C(N)c1ccc(C(=O)NCCCC(=O)NCCC(=O)O)cc1` [Example 8, N-[4-(p-amidinobenzamido)butyryl]-β-alanine], 100 nM.
In the case of `N=C(N)c1ccc(C(=O)NCCC(=O)NCCC(=O)O)cc1` [Example 9, N-[N-(p-amidino-benzoyl)-β-alanyl]-β-alanine] it was 5 nM; in that of `N=C(N)c1ccc(C(=O)NCCCCC(=O)N[C@@H](CC(=O)O)C(=O)N[C@@H](Cc2ccccc2)C(=O)O)cc1` [Example 11, N-[N-[5-(p-amidinobenzamido)valeryl]-L-α-aspartyl]-3-phenyl-L-alanine], 2.5 nM; in that of `CC(C)C[C@H](NC(=O)[C@H](CC(=O)O)NC(=O)CCNC(=O)c1ccc(C(=N)N)cc1)C(=O)OC(C)C` [Example 18, N-[N-[N-(p-amidino-benzoyl)-β-alanyl]-L-α-aspartyl]-L-leucine isopropyl ester], 10 nM.
In the case of `CC(C)COC(=O)[C@H](CC(=O)O)NC(=O)CCCCNC(=O)c1ccc(C(=N)N)cc1` [Example 25, isobutyl N-[5-(p-amidinobenzamido)valeryl]-L-α-aspartate] it was 6.7 nM; in that of `CCOC(=O)[C@H](CO)NC(=O)[C@H](CC(=O)O)NC(=O)CCNC(=O)c1ccc(C(=N)N)cc1` [Example 28, N-[N-[N-(p-amidinobenzoyl)-β-alanyl]-L-α-aspartyl]-L-serine ethyl ester], 5 nM; in that of `N=C(N)c1ccc(C(=O)N2CC[C@@H](C(=O)N[C@@H](CC(=O)O)C(=O)N[C@@H](Cc3ccccc3)C(=O)O)C2)cc1` [Example 31, N-[N-[[(R)-1-(p-amidinobenzoyl)-3-pyrrolidinyl]carbonyl]-L-α-aspartyl]-3-phenyl-L-alanine], 12.8 nM.
For the compound `CC(C)[C@H](NC(=O)[C@H](CC(=O)O)NC(=O)CCNC(=O)c1ccc(C(=N)N)cc1)C(=O)O` [Example 38, N-[N-[N-(p-amidinobenzoyl)-β-alanyl]-L-α-aspartyl]-L-valine], the IC50 came out at 3.6 nM.
In the case of `N=C(N)c1ccc(C(=O)NCCC(=O)N[C@@H](CC(=O)O)C(=O)N[C@@H](Cc2ccc(O)cc2)C(=O)O)cc1` [Example 39] it was 1.2 nM.
